{"source": "paper PMC5260004", "about": "“Permeability across a novel microfluidic blood-tumor barrier model” (Fluids and Barriers of the CNS, 2017)", "origin": "cited, not measured here", "test_system": "P-gp", "parameters": "method as in PMID 23916719", "conditions": "in vivo, rhodamine 123 and an inhibitor of P-gp administered concurrently", "data": [{"smiles": "COC(=O)c1ccccc1-c1c2ccc(=N)cc-2oc2cc(N)ccc12", "note": "[Rho123, Rhodamine 123]", "values": [{"measurement": "fold higher dye accumulation in brain with P-gp inhibitor than in the absence of efflux inhibition", "value": "10- to 12 fold"}]}]}
